Earlier results on 1 compound are cited in patent publication US20090198080A1, “METHOD FOR THE PREPARATION OF ARYL ETHERS” (Pfizer Inc, priority 2004, published 2009).

For data set [1], the system named is 8-OH-DPAT hypothermia. Conditions: in vivo.
Data set [2] concerns norepinephrine reuptake.
The subject of data set [3] is serotonin reuptake.
The subject of data set [4] is dopamine reuptake.
For data set [5] the following is noted: different animal models.
In data set [6] the test system is monoamine oxidase (MAO).

SMILES strings stand for the structures.

Consider `CCOc1ccccc1O[C@@H](c1ccccc1)[C@@H]1CNCCO1` (racemic) [reboxetine, 2-[α-(2-ethoxyphenoxy)benzyl]morpholine], for which the “effect in the 8-OH-DPAT hypothermia test” value in data set [1] is recorded as “ineffective”. Also, the “norepinephrine reuptake inhibitory activity” value in data set [2] is recorded as “selective norepinephrine reuptake inhibitor”. In data set [3], the “serotonin reuptake inhibitory activity” value was “only marginal”. Besides, the “dopamine reuptake inhibitory activity” value in data set [4] is recorded as “no dopamine reuptake inhibitory activity”. The anticholinergic binding activity result in data set [5] is “no anticholinergic binding activity”. In data set [6], the “monoamine oxidase (MAO) inhibitory activity” value is “substantially devoid”.
